Reference: ChEMBL document CHEMBL3352542, “Synthesis, biological evaluation and molecular modeling study of 2-(1,3,4-thiadiazolyl-thio and 4-methyl-thiazolyl-thio)-quinazolin-4-ones as a new class of DHFR inhibitors” (Bioorg Med Chem Lett, 2014)

What was measured:
Dihydrofolate reductase = target: T1, Dihydrofolate reductase (Bos taurus, UniProt P00376); assay: Inhibition of bovine liver DHFR
T1 sequence (P00376 whole entry): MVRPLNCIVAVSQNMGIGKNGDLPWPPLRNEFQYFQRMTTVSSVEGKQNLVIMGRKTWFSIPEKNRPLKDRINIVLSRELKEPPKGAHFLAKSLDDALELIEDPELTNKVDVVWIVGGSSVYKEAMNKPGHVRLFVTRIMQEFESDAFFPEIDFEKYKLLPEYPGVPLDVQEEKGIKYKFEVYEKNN

Staphylococcus aureus = assay: Antimicrobial activity against Staphylococcus aureus assessed as inhibition zone at 200 ug/disk after 24 hrs by disc-diffusion method; format: functional; conditions: read-out: IZ
Bacillus subtilis = assay: Antimicrobial activity against Bacillus subtilis assessed as inhibition zone at 200 ug/disk after 24 hrs by disc-diffusion method; format: functional; conditions: read-out: IZ
Escherichia coli = assay: Antimicrobial activity against Escherichia coli assessed as inhibition zone at 200 ug/disk after 24 hrs by disc-diffusion method; format: functional; conditions: read-out: IZ
Pseudomonas aeruginosa = assay: Antimicrobial activity against Pseudomonas aeruginosa assessed as inhibition zone at 200 ug/disk after 24 hrs by disc-diffusion method; format: functional; conditions: read-out: IZ
Candida albicans = assay: Antimicrobial activity against Candida albicans assessed as inhibition zone at 200 ug/disk after 24 hrs by disc-diffusion method; format: functional; conditions: read-out: IZ
[1] = Growth inhibition of human MOLT4 cells at 10 uM after 48 hrs; format: functional; conditions: MOLT-4, 48 h, read-out: GI
SR = assay: Growth inhibition of human SR cells at 10 uM after 48 hrs; format: functional; conditions: read-out: GI
[2] = Growth inhibition of human HOP92 cells at 10 uM after 48 hrs; format: functional; conditions: HOP-92, 48 h, read-out: GI
NCI-H226 = assay: Growth inhibition of human NCI-H226 cells at 10 uM after 48 hrs; format: functional; conditions: NCI-H226, 48 h, read-out: GI
[3] = Growth inhibition of human SF295 cells at 10 uM after 48 hrs; format: functional; conditions: SF-295, 48 h, read-out: GI
A498 = assay: Growth inhibition of human A498 cells at 10 uM after 48 hrs; format: functional; conditions: A498, 48 h, read-out: GI
[4] = Growth inhibition of human UO31 cells at 10 uM after 48 hrs; format: functional; conditions: UO-31, 48 h, read-out: GI
MCF7 = assay: Growth inhibition of human MCF7 cells at 10 uM after 48 hrs; format: functional; conditions: MCF7, 48 h, read-out: GI
T47D = assay: Growth inhibition of human T47D cells at 10 uM after 48 hrs; format: functional; conditions: read-out: GI
HL-60(TB) = assay: Growth inhibition of human HL-60(TB) cells at 10 uM after 48 hrs; format: functional; conditions: HL-60, 48 h, read-out: GI
K562 = assay: Growth inhibition of human K562 cells at 10 uM after 48 hrs; format: functional; conditions: K562, 48 h, read-out: GI
[5] = Growth inhibition of human RPMI8226 cells at 10 uM after 48 hrs; format: functional; conditions: RPMI-8226, 48 h, read-out: GI
NCI-H23 = assay: Growth inhibition of human NCI-H23 cells at 10 uM after 48 hrs; format: functional; conditions: NCI-H23, 48 h, read-out: GI
Malme-3M = assay: Growth inhibition of human MALME-3M cells at 10 uM after 48 hrs; format: functional; conditions: read-out: GI
[6] = Growth inhibition of human UACC62 cells at 10 uM after 48 hrs; format: functional; conditions: UACC-62, 48 h, read-out: GI
[7] = Growth inhibition of human PC3 cells at 10 uM after 48 hrs; format: functional; conditions: PC-3, 48 h, read-out: GI

Row | Structure (SMILES) | IC50 (Dihydrofolate reductase) | zone of inhibition at 200 µg/disc (Staphylococcus aureus) | zone of inhibition at 200 µg/disc (Bacillus subtilis) | zone of inhibition at 200 µg/disc (Escherichia coli) | zone of inhibition at 200 µg/disc (Pseudomonas aeruginosa) | zone of inhibition at 200 µg/disc (Candida albicans) | inhibition of growth at 10 µM [1] | inhibition of growth at 10 µM (SR) | inhibition of growth at 10 µM [2] | inhibition of growth at 10 µM [3] | inhibition of growth at 10 µM (A498) | inhibition of growth at 10 µM [4] | other results
1 | COc1ccc(-n2c(Sc3nnc(N)s3)nc3ccc(Cl)cc3c2=O)cc1 | 0.8 µM | 8 mm | 8 mm | 8 mm | 8 mm | 8 mm | 12% | 19.1% | 42.1% | 11% | 36.4% | 21.1% | inhibition of growth at 10 µM (NCI-H226): 13.4%; inhibition of growth at 10 µM (MCF7): 13.2%; inhibition of growth at 10 µM (T47D): 12%
2 | COc1cc2nc(Sc3nnc(N)s3)n(Cc3ccccc3)c(=O)c2cc1OC | 6 µM | 8 mm | 14 mm | 8 mm | 8 mm | 8 mm | 18.5% | 13.4% | 26.7% | 11.4% | 18.7% | 21.5% | 
3 | Nc1nnc(Sc2nc3ccc(Cl)cc3c(=O)n2Cc2ccccc2)s1 | 8 µM | 8 mm | 8 mm | 12 mm | 8 mm | 8 mm | 16.8% |  |  | 13.5% | 25.9% | 27.2% | inhibition of growth at 10 µM (HL-60(TB)): 24.3%; inhibition of growth at 10 µM (K562): 24.8%; inhibition of growth at 10 µM [5]: 17.3%; inhibition of growth at 10 µM (NCI-H23): 10.3%; inhibition of growth at 10 µM (Malme-3M): 19.2%; inhibition of growth at 10 µM [6]: 17.5%; inhibition of growth at 10 µM [7]: 12.8%
